Like-named read-outs stand apart in the source and are kept apart here.

In data set [1] the target is T1, SARS-CoV-2 nsp13 (Severe acute respiratory syndrome coronavirus 2, UniProt P0DTD1). Put plainly: biochemical. It is filed as biochemical. Particulars: for ATPase, percentage of control at the highest tested compound concentration: without BSA/TCEP.
The target of data set [2] is T1, SARS-CoV-2 nsp13. Particulars: for impact of DTT on inhibition of unwinding activity: presence or absence of 1 mM DTT.
For data set [3], the target named is T1, SARS-CoV-2 nsp13. Put plainly: biochemical.
The test system of the next data set is Vero E6-GFP cells. Kind of data set: in vitro. Particulars: read-out: Vero E6-GFP CC50; cell viability, 2 μM CP100356. It is filed as cell-based, African green monkey.
Data set [4] concerns the target T1, SARS-CoV-2 nsp13. As to conditions: read-out: NTPase activity IC50; cited from earlier work.
Another data set relates to SARS-CoV-2. Kind of data set: microbe, parasite or virus in culture. The data set is classed as cell-based. Particulars: for EC50: Severe acute respiratory syndrome coronavirus 2, Vero, read-out: SARS-CoV-2 EC50.
The nature of another data set: in vitro. The data set is classed as cell-based, African green monkey. As to conditions: African green monkey, with CP100356, 2 μM.
[5] abbreviates: ATPase IC50, without BSA/TCEP, no nucleic acid.
Where [6] appears, read: unwinding IC50, without BSA/TCEP.
Where [7] appears, read: ATPase BSA-TCEP-polyrA IC50, BSA, TCEP and poly(A) ssRNA.
Setting [8] is: unwinding BSA-TCEP IC50, 10 μg/mL BSA and 180 μM TCEP.

As to `O=C1c2c(O)cc(O)cc2O[C@H](c2cc(O)c(O)c(O)c2)[C@H]1O` [dihydro-myricetin], the “ATPase, percentage of control at the highest tested compound concentration” value (“ATPase, percentage of control” for short) on SARS-CoV-2 nsp13 [1] is listed as 100%.

Broadly, the IC50 is the midpoint of a concentration-inhibition curve. Regarding `O=c1cc(-c2ccc(O)cc2)oc2cc(O[C@@H]3O[C@H](CO)[C@@H](O)[C@H](O)[C@H]3O)cc(O)c12` [apigenin-7-O-glucoside], the IC50 at SARS-CoV-2 nsp13 [1] (setting [5]) and against SARS-CoV-2 nsp13 [3] (setting [6]) was greater than 30 µM throughout. Further, at SARS-CoV-2 nsp13 [1], the “ATPase, percentage of control” value was found to be 99%. The “unwinding, percentage of control at the highest tested compound concentration” value (from here on “unwinding, percentage of control”) at SARS-CoV-2 nsp13 [2] (without BSA/TCEP) worked out at 100%.

A word on the CC50: it is the concentration at which the toxic effect on the cells reaches its halfway point. As for `CC(C)C[C@H](NC(=O)OCc1ccccc1)C(=O)N[C@@H](CC1CCNC1=O)C(O)S(=O)(=O)O` (stereo partly shown) [GC376, reference compound], the cytotoxic concentration (CC50) in the data set with Vero E6-GFP cells was greater than 100 µM.

In the case of `COc1ccc2cc1Oc1ccc(cc1)C[C@H]1c3c(cc4c(c3Oc3cc5c(cc3OC)CCN(C)[C@@H]5C2)OCO4)CCN1C` [cepharanthine], the IC50 at SARS-CoV-2 nsp13 [4] was 400 µM.

Regarding `O=C(O)c1cc(O)c(O)c(O)c1` [gallic acid], the IC50 on SARS-CoV-2 nsp13 [1] (setting [5]) and against SARS-CoV-2 nsp13 [3] (setting [6]) was greater than 30 µM throughout. In addition, on SARS-CoV-2 nsp13 [1], the “ATPase, percentage of control” value amounted to 92%. The “unwinding, percentage of control” value on SARS-CoV-2 nsp13 [2] (without BSA/TCEP) was 89%.

Usually EC50 stands for the concentration needed to bring the measured effect to its halfway point. For `COc1ccc(-c2cc(=O)c3c(O)cc(O)cc3o2)cc1O` [diosmetin], on SARS-CoV-2 nsp13 [1], the “ATPase, percentage of control” value amounted to 92%. In the data set on SARS-CoV-2, the EC50 is greater than 100 µM and the “SARS-CoV-2, percentage of control at the highest tested compound concentration” value (shortened to “SARS-CoV-2, percentage of control”) is reported as >100 (100%).

On to `COc1c(O)cc(O)c2c(=O)cc(-c3ccccc3)oc12` [wogonin], for which the IC50 against SARS-CoV-2 nsp13 [1] (setting [7]) was greater than 30 µM; on SARS-CoV-2 nsp13 [1] (setting [5]) it was greater than 30 µM; on SARS-CoV-2 nsp13 [3] (setting [8]) it was 74.9 ± 8.3 µM; against SARS-CoV-2 nsp13 [3] (setting [6]), 24.9 ± 5.5 µM. The “ATPase, percentage of control” value at SARS-CoV-2 nsp13 [1] is given as 95%.

Usually viability stands for a per cent measure of how many cells are alive, often set against a control. Read a high viability as better survival. For `O=c1c(O)c(-c2cc(O)c(O)c(O)c2)oc2cc(O)cc(O)c12` [myricetin], the “ATPase, percentage of control” value on SARS-CoV-2 nsp13 [1] was found to be 87%. Moreover, in the data set with SARS-CoV-2, the EC50 is greater than 100 µM and the “SARS-CoV-2, percentage of control” value was >100 (100%). In “in vitro”, the 50% cytotoxic concentration (CC50) at 72 h is greater than 100 µM and the viability at 72 h stood at 100%. For the same molecule, the “impact of DTT on inhibition of unwinding activity” value at SARS-CoV-2 nsp13 [2] is “equally active in the presence and absence of DTT”.

On to `COc1cc(O)c2c(=O)c(-c3ccc(O)cc3)coc2c1` [prunetin], for which the concentration for half-maximal inhibition (IC50) on SARS-CoV-2 nsp13 [1] (setting [7]) was greater than 30 µM; against SARS-CoV-2 nsp13 [1] (setting [5]), greater than 30 µM; against SARS-CoV-2 nsp13 [3] (setting [8]) it was greater than 100 µM; on SARS-CoV-2 nsp13 [3] (setting [6]) it was 11.5 ± 1.7 µM. Further, the “ATPase, percentage of control” value on SARS-CoV-2 nsp13 [1] was determined as 97%. For the same molecule, the concentration for a half-maximal effect (EC50) in the data set with SARS-CoV-2 was greater than 100 µM. The “SARS-CoV-2, percentage of control” value in the data set with SARS-CoV-2 was >100 (100%). The molecule also yielded a 50% cytotoxic concentration (CC50) at 72 h in the data set “in vitro” greater than 100 µM. The viability at 72 h in the data set “in vitro” turned out to be 100%.

On SARS-CoV-2 nsp13 [1] (setting [7]), `O=c1c(O)c(-c2ccc(O)cc2)oc2cc(O)cc(O)c12` [kaempferol] gave an IC50 greater than 30 µM. At SARS-CoV-2 nsp13 [1] (setting [5]), this molecule displayed a half-maximal inhibitory concentration (IC50) greater than 30 µM. The “ATPase, percentage of control” value on SARS-CoV-2 nsp13 [1] came out at 83%. Further, in the data set on SARS-CoV-2, the concentration giving a half-maximal response (EC50) is greater than 100 µM and the “SARS-CoV-2, percentage of control” value is given as >100 (100%). In “in vitro”, this molecule returned a 50% cytotoxic concentration (CC50) at 72 h greater than 100 µM and a viability at 72 h of 100%. Besides, the “impact of DTT on inhibition of unwinding activity” value at SARS-CoV-2 nsp13 [2] is “equally active in the presence and absence of DTT”. On SARS-CoV-2 nsp13 [2] (versus ATP), the “mode of inhibition of unwinding activity” value is “noncompetitively versus ATP”. Besides, the “unwinding IC50 range in words” value on SARS-CoV-2 nsp13 [2] (without BSA/TCEP) is listed as “nanomolar range”. The molecule further came in with an IC50 on SARS-CoV-2 nsp13 [3] (setting [8]) of 19 ± 2.1 µM.

For `C[C@@H]1O[C@@H](OC[C@H]2O[C@@H](Oc3c(-c4ccc(O)c(O)c4)oc4cc(O)cc(O)c4c3=O)[C@H](O)[C@@H](O)[C@@H]2O)[C@H](O)[C@H](O)[C@H]1O` [rutin], the “ATPase, percentage of control” value at SARS-CoV-2 nsp13 [1] was 96%. In addition, on SARS-CoV-2 nsp13 [2] (without BSA/TCEP), the “unwinding, percentage of control” value is 75%.

In the case of `O=c1cc(-c2ccccc2)oc2cc(O)c(O)c(O)c12` [baicalein], the “ATPase, percentage of control” value on SARS-CoV-2 nsp13 [1] came to 94%. In addition, in the data set with SARS-CoV-2, the 50% effective concentration (EC50) is greater than 100 µM and the “SARS-CoV-2, percentage of control” value was >100 (100%). Moreover, in the data set “in vitro”, the CC50 at 72 h is greater than 100 µM and the viability at 72 h was determined as 100%.

kaempferol-3-O-rutinoside: the “ATPase, percentage of control” value at SARS-CoV-2 nsp13 [1] was 95%. The “unwinding, percentage of control” value at SARS-CoV-2 nsp13 [2] (without BSA/TCEP) came to 71%.

As for `O=c1c(O)c(-c2ccc(O)c(O)c2)oc2cc(O)cc(O)c12` [quercetin], the EC50 in the data set on SARS-CoV-2 was greater than 100 µM. In “in vitro”, the CC50 at 72 h was greater than 100 µM and the viability at 72 h turned out to be 100%.

As to `Oc1ccc(/C=C/c2cc(O)cc(O)c2)cc1` [resveratrol], the IC50 against SARS-CoV-2 nsp13 [1] (setting [5]) and on SARS-CoV-2 nsp13 [3] (setting [6]) was greater than 30 µM each time. Moreover, at SARS-CoV-2 nsp13 [1], the “ATPase, percentage of control” value is 98%. Besides, the “unwinding, percentage of control” value at SARS-CoV-2 nsp13 [2] (without BSA/TCEP) worked out at 64%.

Values taken from paper PMC9003574 (ACS Pharmacology & Translational Science, 2022).
